Test results reported in patent US5922557A, “System for stably expressing a high-affinity camp phosphodiesterase and use thereof” (Merck & Co., Inc., priority 1998, dated 1999).
Entries after “also recorded” stand apart in the source; their conditions may differ. Read-outs that look alike come from different tables or passages of the source.

Tests used:
[1] = system: high-affinity rolipram binding site, rat forebrain membranes; settings: cited from earlier work
[2] = target: T1, recombinant full-length human PDE IVa (rhPDEIVa) (Homo sapiens, UniProt P27815, M723I); assay: Phosphodiesterase Scintillation Proximity Assay, inhibition of soluble rhPDE IVa (100,000×g supernatant of transfected CHO-K1 cells); format: biochemical; settings: broken-cell preparation; data not shown
T1 construct: a cDNA insert encoding for a full-length human PDE IVa enzyme; made in house; host or cells: CHO-K1 cells, stably transfected (also expressing the prostanoid IP receptor); 100,000xg supernatant of the sonicate

[3] = system: CHO-K1 cells stably expressing rhPDE IVa; assay: cells; format: cell-based; settings: for effect of preincubation on sensitivity of the enzyme to inhibitors: whole-cell preparation, data not shown
Method: Levels of cAMP were measured in CHO-K1 cells stably expressing PDE IVa enzyme as outlined in Materials and Methods.
CHO-K1 cells were plated at a density of 10^6 cells/175 cm^2 containing complete media with 500 μg/ml hygromycin. The flasks were maintained in an incubator at 37° C. with 5.0% CO2 for 72 hr. The media was changed and the cells were allowed to grow overnight. The cells were washed and dissociated from the plate with PBS containing 0.5 mM EDTA. Cellular cAMP content was measured by centrifuging the cell suspension at 150 g×10 min and resuspending the cells in a Hanks buffered salt solution at a density of 0.2×10^6 cells/ml. The cells were preincubated at room temperature for 15 min and then incubated with 10 μM prostaglandin I2 (PGI2) and the indicated compound for an additional 10 min. Basal cAMP levels were determined by incubating the cells in 0.1% DMSO. The incubations were terminated by the addition of HCl (0.1N final) and the cells measured for cAMP.
Determinations of whole-cell cAMP content were performed by incubating 100 μl reconstituted rabbit anti-succinyl cAMP serum with 100 μl of the whole-cell reaction or known cAMP standard and 30 pmol of 125I-cAMP TME in a […]™ well (300 μl final volume) at room temperature for 18 h. Total cpm (Bo) was determined in the absence of sample or cAMP standard. The reaction mixture was then aspirated out of the well, and individual wells were counted in a BECKMAN LS 6000SC with the window open from 10-999 for 1 min. The data were expressed as %B/Bo=[(standard or sample cpm--non-specific cpm)/(Bo cpm-non-specific cpm)]×100. Non-specific cpm were determined by incubating only the 125I-cAMP TME with assay buffer (50 mM acetate; pH 5.8) in the ScintiStrip™ well. All determinations were performed in triplicate.

FLAG PDE IVAmet330 = FLAG PDE IVAmet330 (Homo sapiens, UniProt P27815, M723I); format: binding; set-up: made in house; settings: 0.2 to 100 nM [^3 H](R)-rolipram
Method: CHO-K1 cells stably expressing epitope FLAG PDE IV constructs were lysed by sonication for 10 secs at a power setting of 50% (Braunsonic Model 2000) in an ice cold solution containing 50 mM Tris, pH 7.5; 1 mM EDTA; protease inhibitor cocktail (Boehringer, Montreal, QUE). The soluble and particulate fractions of the cell were obtained by centrifuging the sonicate for 90 min at 100,000×g at 40° C. […] The affinity matrix was washed with column buffer until all unbound protein was eluted from the column as determined with a UV-2 flow cell. Bound material was eluted with column buffer containing 0.5 mg/ml. FLAG peptide at a flow rate of 2 ml/min.
(§1) The filters were quickly washed with an ice-cold solution of 50 mM Tris; pH 7.5. […] Non-specific binding amounted to less than 5% of the total measured binding activity.

FLAG PDE IVA = FLAG PDE IVA (Homo sapiens, UniProt P27815, M723I)
Method: Each point represents the mean of 3 separate experiments performed in duplicate±SEM. […] Each point represents the average of 3 separate experiments.
CHO-K1 cells stably expressing epitope FLAG PDE IV constructs were lysed by sonication for 10 secs at a power setting of 50% (Braunsonic Model 2000) in an ice cold solution containing 50 mM Tris, pH 7.5; 1 mM EDTA; protease inhibitor cocktail (Boehringer, Montreal, QUE). The soluble and particulate fractions of the cell were obtained by centrifuging the sonicate for 90 min at 100,000×g at 40° C. Twenty-five ml. […] The affinity matrix was washed with column buffer until all unbound protein was eluted from the column as determined with a UV-2 flow cell. Bound material was eluted with column buffer containing 0.5 mg/ml. FLAG peptide at a flow rate of 2 ml/min.
(§2) The filters were quickly washed with an ice-cold solution of 50 mM Tris; pH 7.5.

HSA = assay: [3H](R)-rolipram binding to HSA; set-up: species or system human; settings: presence or absence of 150 mM KCl
Method: as §1

rhPDE IVa = rhPDE IVa (Homo sapiens, UniProt P27815, M723I)
Method: Shown is the saturable binding to the soluble rhPDE IVa enzyme with increasing concentrations of ligand from 0.2 to 100 nM (panal A).
as §2

[4] = target: T1, recombinant full-length human PDE IVa (rhPDEIVa); assay: Phosphodiesterase Scintillation Proximity Assay, inhibition of soluble rhPDE IVa (100,000×g supernatant of transfected CHO-K1 cells); format: biochemical
Method: Inhibition of soluble rhPDEIVa by specific inhibitors was examined at 100 nM substrate. Enzyme activity was determined as described in Materials and Methods using the Amersham SPA beads that specifically bind 5'AMP.
Inhibition of soluble rhPDEIVa by specific inhibitors was examined in the presence of 5 mM to 100 mM MgCl2. Enzyme activity was determined as described in Materials and Methods using the Amersham SPA beads that specifically bind 5'AMP in the presence of […] cAMP substrate.

[5] = system: PKA in CHO-K1 cells stably expressing PDE IVa; assay: Whole-cell cAMP dependent protein kinase (PKA) activity ratio; format: cell-based; settings: CHO-K1; with 1 μM PGI2; read-out: apparent EC50 to activate PKA
Method: PKA activity ratios were determined as the amount of ^32 P transferred to histone F2B in the presence and absence of cAMP as described in Materials and Methods. Data points represent the fractional PKA activation by incubating cells with the indicated concentrations of inhibitor and […]. Experiments were performed in triplicate. n=3 experiments±SD.
CHO-K1 cells were grown and resuspended as described above except that the Hank's buffer was replaced by a solution containing 0.25M sucrose; 10 mM Tris, pH 7.5; and 0.5 mM EDTA. The cells were preincubated and incubated with 1 μM PGI2 and the indicated compounds at room temperature as described above. The incubations were terminated by the addition of 0.05% Triton X-100 (final) and incubating the cells for 5 min on ice. […] This mixture (final volume 220 μl) was incubated in a waterbath for 30 min at 35° C. and terminated by adding 5 ml of ice cold 5% TCA. The precipatated protein was applied to a Whatman GF/B filter under vacuum and the filter was subsequently washed with 3×5 ml ice cold TCA solution. The amount of -32P incorporation was measured by placing the filters in Aquasol and counting in a BECKMAN LSC 5000. Basal cAMP independent protein kinase activity was determined by the inclusion of 1 μM Protein Kinase A Peptide Inhibitor (19) in the reaction mixture. Maximal cAMP protein kinase activity was determined in the presence of 10 μM cAMP. All determinations were performed in triplicate and activity ratios were calculated as the [(kinase activity in the presence of PDE inhibitor minus cAMP independent kinase activity)/(maximal cAMP kinase activity minus cAMP independent kinase activity)]×100.

[6] = Kinetic characterization of PDE IVa enzymes with cAMP as substrate; format: biochemical
Method: PDE IVa activity was assayed in the 100,000×g supernatant obtained from sonicated CHO-K1 cells stably expressing the enzyme. The enzyme activity was assayed in duplicate at substrate concentrations ranging from 0.2 μM to 30 μM using the Amersham SPA beads as described in Materials and Methods. Shown are the saturation kinetics for the enzyme. The inset graph is a double-reciprocal plot of the kinetic data. Average of 3 separate experiments +/- SD .
Panel A. Shown are the saturation kinetics for the enzyme.PDE IVA activity was assayed in the 100,000×g supernatant obtained from sonicated CHO-K1 cells stably expressing the enzyme. The enzyme activity was assayed in duplicate at substrate concentrations ranging from 0.2 mM to 10 mM using the Amersham SPA beads as described in Materials and Methods. Average of 3 separate experiments +/- SEM . Panel B. Double-reciprocal replot of the averaged saturation data.

rhPDE IVa, sequence (P27815 whole entry M723I): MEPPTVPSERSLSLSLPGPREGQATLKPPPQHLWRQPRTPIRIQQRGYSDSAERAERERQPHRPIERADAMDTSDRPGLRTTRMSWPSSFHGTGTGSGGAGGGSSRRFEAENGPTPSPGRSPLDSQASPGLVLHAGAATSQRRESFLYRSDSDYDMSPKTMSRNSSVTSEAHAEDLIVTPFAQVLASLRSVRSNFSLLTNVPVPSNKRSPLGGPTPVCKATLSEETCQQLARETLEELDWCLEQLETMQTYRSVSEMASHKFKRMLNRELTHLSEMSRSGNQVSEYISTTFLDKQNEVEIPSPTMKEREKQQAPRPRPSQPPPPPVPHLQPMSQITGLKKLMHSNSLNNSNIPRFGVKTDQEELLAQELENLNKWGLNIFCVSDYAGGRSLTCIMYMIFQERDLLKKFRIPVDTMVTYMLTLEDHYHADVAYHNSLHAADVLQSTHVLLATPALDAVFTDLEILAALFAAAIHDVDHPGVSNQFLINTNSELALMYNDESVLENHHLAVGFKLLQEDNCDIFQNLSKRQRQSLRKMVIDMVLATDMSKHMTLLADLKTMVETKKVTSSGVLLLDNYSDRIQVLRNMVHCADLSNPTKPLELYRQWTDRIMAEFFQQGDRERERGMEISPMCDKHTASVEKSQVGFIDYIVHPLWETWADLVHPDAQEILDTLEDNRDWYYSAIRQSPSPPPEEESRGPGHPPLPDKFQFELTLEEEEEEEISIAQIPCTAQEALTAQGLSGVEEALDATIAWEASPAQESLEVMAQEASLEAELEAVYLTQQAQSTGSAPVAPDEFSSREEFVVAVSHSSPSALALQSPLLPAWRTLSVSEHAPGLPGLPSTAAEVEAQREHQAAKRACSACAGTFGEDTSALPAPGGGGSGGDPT
T1 sequence (P27815 whole entry M723I): as above
FLAG PDE IVA, sequence (P27815 whole entry M723I): as above
FLAG PDE IVAmet330, sequence (P27815 332-886 M723I): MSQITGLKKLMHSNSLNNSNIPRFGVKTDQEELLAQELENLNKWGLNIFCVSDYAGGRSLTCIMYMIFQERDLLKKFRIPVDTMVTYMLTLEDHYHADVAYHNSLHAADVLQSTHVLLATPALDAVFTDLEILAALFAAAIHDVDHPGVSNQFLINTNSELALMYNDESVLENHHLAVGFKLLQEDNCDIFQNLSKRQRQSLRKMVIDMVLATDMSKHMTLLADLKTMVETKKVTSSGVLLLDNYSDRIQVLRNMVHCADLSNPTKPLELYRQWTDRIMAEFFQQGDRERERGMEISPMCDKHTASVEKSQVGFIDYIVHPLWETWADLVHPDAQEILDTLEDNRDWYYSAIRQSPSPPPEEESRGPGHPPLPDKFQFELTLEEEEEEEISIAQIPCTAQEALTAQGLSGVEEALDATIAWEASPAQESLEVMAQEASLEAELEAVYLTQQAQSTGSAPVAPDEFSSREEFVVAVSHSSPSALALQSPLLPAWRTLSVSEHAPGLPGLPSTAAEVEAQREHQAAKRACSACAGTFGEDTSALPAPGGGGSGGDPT

In the case of `COc1ccc(C2CNC(=O)C2)cc1OC1CCCC1` (racemic) [(±)[3H] rolipram], the “increase in high-affinity binding” value ([1]; 100 mM NaCl and 1 mM MgCl2) is listed as 20 fold and the Bmax ([1]; rat forebrain membranes) is listed as 19.3 pmol/g rat forebrain.

For `CO[C@H]([C@H](O)CC(=O)[C@@H](C)[C@@H](O)CC[C@@H](C)[C@@H]1O[C@]2(CC[C@@H](C)[C@H](CC[C@H](C)C(C)=O)O2)CC[C@@H]1C)[C@H](OC(=O)C[C@@H](O)C1=C(C)C(=O)OC1=O)C(C)C` [tautomycin], the “effect of preincubation on sensitivity of the enzyme to inhibitors” value (shortened to “effect of preincubation … to inhibitors”) [2] was “no effect on the sensitivity of the enzyme to inhibitors” and the “effect of preincubation … to inhibitors” value [3] was “no effect on the sensitivity of the enzyme to inhibitors”.

`CCCCC[C@H](O)/C=C/[C@@H]1[C@H]2C/C(=C/CCCC(=O)O)O[C@H]2C[C@H]1O` [PGI2, prostaglandin I2] showed a fold induction at 10 µM ([3]; CHO-K1, 10 min, read-out: increase in basal cAMP content) of 2 and an activation at 10 µM ([3]; CHO-K1, 10 min, PGI2 alone, read-out: increase in basal cAMP levels) of about 50%.

With `COc1ccc([C@@H]2CNC(=O)C2)cc1OC1CCCC1` [[^3 H](R)-rolipram] the “saturable high-affinity binding to truncated enzyme” value (FLAG PDE IVAmet330) was “did not exhibit any saturable binding; also recorded: does not display any saturable high-affinity [^3 H](R)-rolipram binding”, the Stochiometry (FLAG PDE IVA; 0 mM KCl) was 0.02 (0.0) fmol [^3 H](R)-Rolipram/fmol P and the Bmax (FLAG PDE IVA; 0 mM KCl + 3 mg/ml HSA) was 150 (47) fmol [^3 H](R)-rolipram. For the same molecule, the Stochiometry (FLAG PDE IVA; 0 mM KCl + 3 mg/ml HSA) was 0.10 (0.03) fmol [^3 H](R)-Rolipram/fmol P, the Bmax (FLAG PDE IVA; 3 mg/ml HSA) was 150±47 fmol/1.6 pmol enzyme and the “increase in Bmax” value (FLAG PDE IVA; 3 mg/ml HSA) was 5 fold. The Bmax (FLAG PDE IVA; 150 mM KCl) was 63 (16) fmol [^3 H](R)-rolipram, the Stochiometry (FLAG PDE IVA; 150 mM KCl) was 0.04 (0.01) fmol [^3 H](R)-Rolipram/fmol P and the Bmax (FLAG PDE IVA; 150 mM KCl (text)) was 63±16 fmol/1.6 pmol enzyme. The Bmax (FLAG PDE IVA; 150 mM KCl + 3 mg/ml HSA) was 240 (37) fmol [^3 H](R)-rolipram, the Stochiometry (FLAG PDE IVA; 150 mM KCl + 3 mg/ml HSA) was 0.15 (0.03) fmol [^3 H](R)-Rolipram/fmol P and the Bmax (FLAG PDE IVA; 150 mM KCl + 3 mg/ml HSA (text)) was 240 fmol/1.6 pmol purified enzyme. For the same molecule, the “specific binding to HSA” value (HSA) was “No specific binding”, the Bmax (rhPDE IVa; 150 mM KCl) was 0.47 pmol/20 μg prot and the “Hill coefficient of binding” value (rhPDE IVa; 300 mM KCl) was 2. The Bmax (rhPDE IVa; absence of added KCl) was 0.16 pmol/20 μg prot.

For `C=C1[C@@H](O)[C@@H]2O[C@]3(CC[C@H](/C=C/[C@@H](C)[C@@H]4CC(C)=C[C@@]5(O[C@H](C[C@@](C)(O)C(=O)O)CC[C@H]5O)O4)O3)CC[C@H]2O[C@@H]1[C@@H](O)C[C@H](C)[C@H]1O[C@@]2(CCCCO2)CC[C@H]1C` [okadaic acid], the “effect of preincubation … to inhibitors” value [2] was “no effect on the sensitivity of the enzyme to inhibitors” and the “effect of preincubation … to inhibitors” value [3] was “no effect on the sensitivity of the enzyme to inhibitors”.

For `O=[N+]([O-])c1cccc(-c2cc(Cc3ccncc3)cc3cccnc23)c1` [RS 14203], the IC50 ([4]; 100 nM cAMP substrate, read-out: IC50 for inhibition of soluble PDE IVa activity) was 9 nM, the IC50 ([4]; 5 mM MgCl2, read-out: IC50, inhibition of soluble rhPDEIVa) was 140 nM and the IC50 ([4]; 100 mM MgCl2, read-out: IC50, inhibition of soluble rhPDEIVa) was 0.5 nM. The “effect of increased salt / ionic strength on inhibitory potency (IC50)” value ([4]; increasing MgCl2 or other salt in assay buffer) was “became more potent; also recorded: salt dependent shift in IC50 from low to high affinity”, the EC50 [5] was 10 nM and the EC50 ([3]; CHO-K1, with 10 μM PGI2 (b116 prints 10 FM), read-out: EC50 for elevating cellular cAMP) was 27 nM. For the same molecule, the “cellular cAMP reached” value ([3]; with PGI2, from 0.2 pmol cAMP/10^4 cells) was 3.6 pmols cAMP/10^4 cells.

In the case of `COc1ccc([C@H]2CNC(=O)C2)cc1OC1CCCC1` [(S)-rolipram], the EC50 [5] is reported as 1000 nM.

B1: PDE IVa: recombinant full-length human PDE IVa enzyme stably expressed in CHO-K1 cells (protein, UniProt P27815 1-886, looked up)
chain: MEPPTVPSERSLSLSLPGPREGQATLKPPPQHLWRQPRTPIRIQQRGYSDSAERAERERQPHRPIERADAMDTSDRPGLRTTRMSWPSSFHGTGTGSGGAGGGSSRRFEAENGPTPSPGRSPLDSQASPGLVLHAGAATSQRRESFLYRSDSDYDMSPKTMSRNSSVTSEAHAEDLIVTPFAQVLASLRSVRSNFSLLTNVPVPSNKRSPLGGPTPVCKATLSEETCQQLARETLEELDWCLEQLETMQTYRSVSEMASHKFKRMLNRELTHLSEMSRSGNQVSEYISTTFLDKQNEVEIPSPTMKEREKQQAPRPRPSQPPPPPVPHLQPMSQITGLKKLMHSNSLNNSNIPRFGVKTDQEELLAQELENLNKWGLNIFCVSDYAGGRSLTCIMYMIFQERDLLKKFRIPVDTMVTYMLTLEDHYHADVAYHNSLHAADVLQSTHVLLATPALDAVFTDLEILAALFAAAIHDVDHPGVSNQFLINTNSELALMYNDESVLENHHLAVGFKLLQEDNCDIFQNLSKRQRQSLRKMVIDMVLATDMSKHMTLLADLKTMVETKKVTSSGVLLLDNYSDRIQVLRNMVHCADLSNPTKPLELYRQWTDRIMAEFFQQGDRERERGMEISPMCDKHTASVEKSQVGFIDYIVHPLWETWADLVHPDAQEILDTLEDNRDWYYSAIRQSPSPPPEEESRGPGHPPLPDKFQFELTLEEEEEEEISMAQIPCTAQEALTAQGLSGVEEALDATIAWEASPAQESLEVMAQEASLEAELEAVYLTQQAQSTGSAPVAPDEFSSREEFVVAVSHSSPSALALQSPLLPAWRTLSVSEHAPGLPGLPSTAAEVEAQREHQAAKRACSACAGTFGEDTSALPAPGGGGSGGDPT
modifications: full-length
notes: recombinant full-length human PDE IVa enzyme stably expressed in CHO-K1 cells
In the case of B1, the Vmax ([6]; soluble PDE IVa from CHO-K1 cells) is reported as 19.5 nM cAMP hydrolyzed/mg. protein per min and the Km ([6]; soluble PDE IVa from CHO-K1 cells, read-out: Km of the enzyme for cAMP as a substrate) is reported as 3.5 µM.

B2: FLAG PDE IVA: purified full-length epitope FLAG PDE IVA enzyme (protein, UniProt P27815 1-886, looked up)
chain: B1 chain
modifications: full-length FLAG epitope tag
Molecule B2 has a Vmax ([6]; 150 mM KCl, 0 mg/ml HSA) of 9.7 ± 0.2 μm/mg/min, a Vmax ([6]; 150 mM KCl, 3 mg/ml HSA) of 4.8 ± 0 μm/mg/min and a Km ([6]; 150 mM KCl, 3 mg/ml HSA, read-out: Km) of 4.8 ± 0.1 µM.
